Experimental data taken from patent publication US4568765A, “Isoprenylamine derivatives” (priority 1981, dated 1986).
Like-named read-outs stand apart in the source and are kept apart here.

Tests used:
[1] = test system: vaccinia virus; format: in vivo; settings: ICR female mice; 50 mg/kg intraperitoneally 24 hours before i.v. virus inoculation; lesions counted on 8th day; against surfactant solution group
[2] = test system: human interferon; normal diploid cells (fibroblast); experiment: Human interferon inducing activity (in vitro), 3H-uridine-uptake inhibition; format: cell-based; settings: 25 n molar suspension, radioisotope microassay
Protocol: Interferon was induced according to the method of Edward A. Havell et al. by treating normal diploid cells (fibroblast) originated from human being with each test compound (in the form of ethanol solution diluted with PBS (-), 25 n molar suspension). Using the radioisotope microassay method of H. Ishitsuka et al., interferon was measured in terms of 3H-uridine-uptakeinhibition rate.

[3] = test system: vaccinia virus; format: cell-based; settings: vero cells; 50 n molar concentration
[4] = test system: tumor cells KN7 -8; experiment: Anti-tumor activity (survivors on the 30th day); format: in vivo; settings: survivors/group of 6 Balb/c male mice, 5×10^5 KN7 -8 cells i.p., 30 mg/kg i.p. 24 hours before and on 2nd and 5th day after inoculation
Protocol: Groups, each consisting of 6 Balb/c male mice weighing about 20 g, were intraperitoneally administered 5×10^5 of tumor cells KN7 -8. Each test compound suspended in a surfactant solution was intraperitoneally administered (each time at a rate of 30 mg/kg) to the mice 24 hours before inoculation of the tumor cells and on the second day and the fifth day after the inoculation, totalling 3 times, and the anti-tumor activity was evaluated in terms of number of survivors on the 30th day after the inoculation.

[5] = Toxicity (50% lethal dose, intravenous); format: in vivo; settings: ddY male mice 20-25 g
From the text: Using ddY male mice weighing 20-25 g, 50% lethal dose of each test compound when intravenously administered was obtained, the results of which are shown in Table 6.

CC(C)=CCCC(C)=CCCC(C)=CCCC(C)=CCCC(C)=CCCC(C)=CCCC(C)=CCCC(C)=CCCC(C)=CCCC(C)=CCNCCNCCNCCN [drawing 16]
Prevention from vaccinia infection (Pock inhibition rate %) [1]: 87.9%

CC(C)=CCCC(C)=CCCC(C)=CCCC(C)=CCCC(C)=CCCC(C)=CCCC(C)=CCCC(C)=CCCC(C)=CCCC(C)=CCNCCNCCN [drawing 24]
Human interferon (in vitro) 3H-uridine-uptake inhibition rate % [2]: 15.1%

CC(C)=CCCC(C)=CCCC(C)=CCCC(C)=CCCC(C)=CCCC(C)=CCCC(C)=CCCC(C)=CCCC(C)=CCCC(C)=CCNCCNCCNCCN [drawing 25]
Anti-vaccinia virus activity (in vitro) (Plaque inhibition rate %) [3]: 44.5%

CC(C)=CCCC(C)=CCCC(C)=CCCC(C)=CCCC(C)=CCCC(C)=CCCC(C)=CCCC(C)=CCCC(C)=CCCC(C)=CCNCCNCCNCCN [drawing 19]
Anti-tumor activity (Survivor on the 30th day) [4]: 5/6

CC(C)=CCCC(C)=CCCC(C)=CCCC(C)=CCCC(C)=CCCC(C)=CCCC(C)=CCCC(C)=CCCC(C)=CCCC(C)=CCNCCNCCN [drawing 22]
Anti-tumor activity (Survivor on the 30th day) ([4]; 30 mg/kg): 2/6

CC(C)=CCCC(C)=CCCC(C)=CCCC(C)=CCCC(C)=CCCC(C)=CCCC(C)=CCCC(C)=CCCC(C)=CCNCCNCCNCCN [drawing 18]
Prevention from vaccinia infection (Pock inhibition rate %) [1]: 76.1%

CC(C)=CCCC(C)=CCCC(C)=CCCC(C)=CCCC(C)=CCCC(C)=CCCC(C)=CCCC(C)=CCCC(C)=CCCC(C)=CCNCCNCCNCCN [drawing 27]
LD50 [5]: 57 mg/kg

CC(C)=CCCC(C)=CCCC(C)=CCCC(C)=CCCC(C)=CCCC(C)=CCCC(C)=CCCC(C)=CCCC(C)=CCNCCNCCNCCN [drawing 21]
Anti-tumor activity (Survivor on the 30th day) [4]: 3/6

CCNCCN(CC)CCN(CC)CCN(CC)CC=C(C)CCCC(C)CCCC(C)CCCC(C)C (stereo not shown)
LD50 ([5]; mouse, in vivo, iv, read-out: LD50): 34 mg/kg

CC(C)=CCCC(C)=CCCC(C)=CCCC(C)=CCCC(C)=CCCC(C)=CCCC(C)=CCCC(C)=CCCC(C)=CCCC(C)=CCNCCNCCNCCN [drawing 28]
LD50 [5]: 21 mg/kg

CC(C)=CCCC(C)=CCCC(C)=CCCC(C)=CCCC(C)=CCCC(C)=CCCC(C)=CCCC(C)=CCCC(C)=CCCC(C)=CCNCCNCCN [drawing 20]
Anti-tumor activity (Survivor on the 30th day) ([4]; 30 mg/kg): 1/6

CC(C)=CCCC(C)=CCCC(C)=CCCC(C)=CCCC(C)=CCCC(C)=CCCC(C)=CCCC(C)=CCCC(C)=CCCC(C)=CCNCCNCCN [drawing 17]
Prevention from vaccinia infection (Pock inhibition rate %) [1]: 51.9%

CC(C)=CCCC(C)=CCCC(C)=CCCC(C)=CCCC(C)=CCCC(C)=CCCC(C)=CCCC(C)=CCCC(C)=CCCC(C)=CCN(CCN(CCN(CCNCc1ccccc1)Cc1ccccc1)Cc1ccccc1)Cc1ccccc1
Human interferon (in vitro) 3H-uridine-uptake inhibition rate % [2]: 23.2%
